From ChEMBL document CHEMBL1154930, “N1-Heterocyclic pyrimidinediones as non-nucleoside inhibitors of HIV-1 reverse transcriptase” (Bioorg Med Chem Lett, 2010) come the findings set out here.

SMILES strings stand for the structures.

The EC50 is the concentration giving half of the maximal effect. A low value points to higher potency in that assay. A word on the bioavailability: it is dose-corrected exposure relative to a reference, in per cent. The half-life is the time in which the quantity being followed falls by half.

Data set [1] relates to Human immunodeficiency virus 1. Briefly: Antiviral activity against wild type HIV1 infected in human MT2 cells. The format is functional, organism-based. The settings on record: Human immunodeficiency virus 1, MT2.
Data set [2] can be described thus: Oral bioavailability in Beagle dog at 4 mg/kg, po. The data set is classed as ADME, organism-based, Canis lupus familiaris. The settings on record: in vivo.
Data set [3] can be described thus: Half life in human microsomes. The format is ADME, Microsome.
The test system of data set [4] is Human immunodeficiency virus 1. Briefly: Antiviral activity against NNRTI-resistant HIV1 harboring reverse transcriptase K103N mutant infected in human MT2 cells. The data set is classed as functional, organism-based. The settings on record: Human immunodeficiency virus 1, MT2.
Data set [5] deals with Human immunodeficiency virus 1. The experiment in a line: Antiviral activity against HIV1 harboring reverse transcriptase Y181C mutant infected in human MT2 cells. The data set is classed as functional, organism-based. As to conditions: Human immunodeficiency virus 1, MT2.
The target in the next data set is Albumin (Homo sapiens, UniProt P02768). The experiment in a line: Binding affinity to human serum albumin. The format is ADME. As to conditions: read-out: PB (converted).
Data set [6] is described as follows: Volume of distribution at steady state in Beagle dog at 0.5 mg/kg, iv or 0.5 mg/kg, po. The data set is classed as ADME, organism-based, Canis lupus familiaris. The settings on record: in vivo, read-out: Vdss.
The nature of data set [7]: Half life in Beagle dog at 0.5 mg/kg, iv or 0.5 mg/kg, po. The data set is classed as ADME, organism-based, Canis lupus familiaris. The settings on record: in vivo.
Data set [8] in a line: Half life in dog microsomes. The data set is classed as ADME, Canis lupus familiaris, Microsome.
The nature of data set [9]: Oral bioavailability in Beagle dog at 0.5 mg/kg, po. The format is ADME, organism-based, Canis lupus familiaris. As to conditions: in vivo.
Data set [10] is described as follows: Oral bioavailability in Beagle dog at 2 mg/kg, po. The data set is classed as ADME, organism-based, Canis lupus familiaris. The settings on record: in vivo.

Sequence of Albumin (P02768 whole entry): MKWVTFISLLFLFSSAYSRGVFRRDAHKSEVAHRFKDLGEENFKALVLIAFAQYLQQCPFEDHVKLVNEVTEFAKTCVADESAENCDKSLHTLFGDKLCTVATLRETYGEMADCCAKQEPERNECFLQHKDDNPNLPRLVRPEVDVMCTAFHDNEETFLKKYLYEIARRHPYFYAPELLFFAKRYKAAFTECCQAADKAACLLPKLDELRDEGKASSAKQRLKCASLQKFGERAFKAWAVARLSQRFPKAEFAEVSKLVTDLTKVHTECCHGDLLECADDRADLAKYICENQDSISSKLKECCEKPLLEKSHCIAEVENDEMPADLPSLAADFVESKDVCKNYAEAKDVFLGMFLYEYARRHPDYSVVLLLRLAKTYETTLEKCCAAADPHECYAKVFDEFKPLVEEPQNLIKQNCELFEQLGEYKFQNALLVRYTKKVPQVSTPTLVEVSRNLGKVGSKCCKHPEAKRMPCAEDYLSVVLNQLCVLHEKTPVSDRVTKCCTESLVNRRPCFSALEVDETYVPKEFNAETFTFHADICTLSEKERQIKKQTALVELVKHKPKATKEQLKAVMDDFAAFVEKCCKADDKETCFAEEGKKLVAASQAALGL

Consider `Cc1cc(C#N)cc(C(=O)c2c(C(C)C)c(=O)[nH]c(=O)n2Cc2cc(N)nc(F)c2)c1`, for which the EC50 was determined as 3.4 nM in data set [1], 1.6 nM in data set [4] and 6.7 nM in data set [5]. Besides, the bioavailability in data set [2] was 96%. In addition, the half-life in data set [3] is 0.75 h; in [7], 3.3 h. In addition, the fraction unbound on Albumin was 0.064. Further, the Vd in [6] came out at 1.8 L/kg.

With `Cc1cc(C#N)cc(C(=O)c2c(C(C)C)c(=O)[nH]c(=O)n2Cc2cc(N)nc(F)c2F)c1`, the half-maximal effective concentration (EC50) in data set [1] was determined as 4.5 nM; in data set [4] it was 7.3 nM; in data set [5] it was 8.2 nM. In data set [3], the half-life is 0.85 h. The fraction unbound at Albumin was 0.067.

Turning to `Cc1cc(C#N)cc(C(=O)c2c(C(C)C)c(=O)[nH]c(=O)n2Cc2cc(F)nc(F)c2)c1`, the EC50 amounted to 12.4 nM in data set [1], 1.9 nM in data set [4] and 12 nM in data set [5]. Moreover, the t1/2 result in data set [3] and in data set [8] was “Stable” in each case. Further, the bioavailability in [9] came out at 41.5%. The fraction unbound at Albumin was 0.058. The Vd in data set [6] was found to be 1.94 L/kg. This molecule showed a half-life in data set [7] of 4.9 h.

Turning to `Cc1cc(C#N)cc(C(=O)c2c(C(C)C)c(=O)[nH]c(=O)n2Cc2ccnc(F)c2)c1`, the figures for the half-maximal effective concentration (EC50) in [1], in [4] and in data set [5] were 6.2 nM, 2.4 nM and 16 nM, respectively. Also, the half-life is 4.68 h in data set [3] and 4.7 h in data set [7]. Moreover, in data set [10], the bioavailability came to 80%. Moreover, the fraction unbound on Albumin was 0.123. The Vd in data set [6] stood at 1.61 L/kg.

Take `O=C1Nc2ccc(Cl)cc2[C@@](C#CC2CC2)(C(F)(F)F)O1` [EFAVIRENZ]: the half-life in data set [3] is 1.63 h. Also, the half-maximal effective concentration (EC50) turned out to be 35 nM in data set [4] and 2.6 nM in [5].

Consider `Cc1cc(C#N)cc(C)c1Oc1nc(Nc2ccc(C#N)cc2)nc(N)c1Br` [ETRAVIRINE], for which the EC50 was 1.6 nM in data set [1], 0.9 nM in data set [4] and 2.6 nM in data set [5]. For the same molecule, the half-life in [3] came to 2.33 h.
